One data set addresses NANOLUC® Luciferase (Oplophorus gracilirostris, UniProt Q9GV45, A31E/A60N/A81I/F95D/I117V/K70R/L54V/L99Q/M102K/N193R/P142E/Q151K/Q38R/Q45L/V71I/Y165I). The data set is described as follows: Luminescence assay: substrate titration with purified NANOLUC Luciferase (RLU, signal half-life, Km). The data set is classed as biochemical. Conditions: 100 μM substrate; initial light output three minutes after substrate addition; relative to furimazine set to 1.0. The protocol: Each compound to be screened was dissolved in DMSO (5 mM) and then further diluted to 100 μM in NANO-GEO® Luciferase Assay Buffer. A two-fold dilution series was prepared for each substrate by serially diluting 500 μl of the substrate solution with 500 μl of NANO-GLO® Luciferase Assay Buffer. Each diluted substrate titration was then combined in equal volumes with purified NANOLUC® Luciferase diluted into CO2 independent media+10% FBS. Initial light output for each substrate was measured in a GLOMAX®-Multi+ luminometer three minutes after substrate addition and then at five minute intervals as a means to determine signal half-life. Signal half-life was calculated using GraphPad Prism One Phase Decay regression and Km and Vmax were calculated using GraphPad Prism using Michaelis-Menten regression.
The synthesized coelenterazine analogues (compounds of formula (I) and (II)) were evaluated for their suitability as luciferase substrates. NANOLUC® luciferase was employed for the screening because it is a small (19 kDa), stable, and particularly bright enzyme. […] RLU, half-life, and Km values are for furimazine is set to 1.0. […]

A short description of data set [1]: Solubility testing in formulation, UV-Vis of supernatant vs 0.2 micron filtrate. The data set is classed as physicochemical. Conditions: 8.7 mM in ethanol/propylene glycol/hydroxypropyl-β-cyclodextrin/PEG 400/water (10:10:10:35:35); UV spectra of supernatant vs filtrate. The protocol: This 5× stock solution was then added to a solution of hydroxypropyl-β-cyclodextrin/water/PEG400 to give a formulation mixture of 8.7 mM in ethanol/propylene glycol/hydroxypropyl-β-cyclodextrin/PEG 400/water (10:10:10:35:35). The mixture was vortexed and centrifuged. Supernatant was sampled and measured in a UV-Vis spectrometer. The mixture was filtered through a 0.2 micron syringe filter and the filtrate was measured and compared to the supernatant.
Shown in FIG. 1 are UV spectra of JRW-1040 in the formulation, comparing supernatant and filtrate. The two UV spectra are superimposed, showing JRW-1040 is fully soluble in the formulation. Shown in FIG. 2 is the same experiment with furimazine. […] This is an example showing improvements in solubility compared to furimazine.

SMILES strings stand for the structures.

NANOLUC® Luciferase, sequence (Q9GV45 28-196 with tags or gaps with the stated changes limits assumed): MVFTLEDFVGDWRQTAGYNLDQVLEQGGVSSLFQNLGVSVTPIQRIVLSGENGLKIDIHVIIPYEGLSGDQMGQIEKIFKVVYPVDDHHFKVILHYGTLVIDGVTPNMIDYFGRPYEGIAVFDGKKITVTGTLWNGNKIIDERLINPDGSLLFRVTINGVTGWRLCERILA

Consider `O=c1c(Cc2ccco2)nc2c(Cc3ccccc3)[nH]c(-c3ccccc3)cn1-2` [Furimazine, 8-benzyl-2-(furan-2-ylmethyl)-6-phenylimidazo[1,2-a]pyrazin-3(7H)-one, reference compound], for which the “RLU (@100 μM)” value on NANOLUC® Luciferase is on record as 1. Further, the “Solubility in the formulation” value in data set [1] was “not fully soluble”.
On the same counts, the results for `O=c1c(Cc2cccs2)nc2c(Cc3ccccc3)[nH]c(-c3cccc(O)c3)cn1-2` [JRW-1040, 8-benzyl-6-(3-hydroxyphenyl)-2-(thiophen-2-ylmethyl)imidazo[1,2-a]pyrazin-3(7H)-one] are 0.8 and “fully soluble”.

The values are drawn from patent US11691976B2, “Coelenterazine analogues” (PROMEGA CORPORATION, priority 2018, dated 2023).
